The values below come from ChEMBL document CHEMBL1201862, “PubChem BioAssay data set” (2004).

Some test systems named below: HCC 2998; HCT-15; IGROV-1; HOP-92; SF-268; SF-295; ACHN; NCI-H226; SK-MEL-5; RPMI-8226; SNB-19; SK-MEL-2; U-251; OVCAR-3; HCT-116; UACC-62; CCRF-CEM; 786-0.
Test in all cases: growth of human tumour cells (NCI), 48 h

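Following 48 hours of exposure in 96-well plates, responses at five concentrations were used to interpolate endpoints linearly. Here, GI50 denotes the concentration required for 50% inhibition of growth.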 The source made the active and inactive calls. Rule as the data show it: active = GI50 up to about 1.1 µM and inactive = higher. A value given as a limit tells only on which side of the number the result lay.

On to `C#CCCCCC#CC1CCCC1C1=CC(=O)c2ccccc21` (stereo not drawn), for which the GI50 with HCC 2998 was 12.6 µM (inactive); in the assay with HCT-15 it was 7.24 µM; with IGROV-1, 6 µM (inactive); in the assay with HOP-92, 4.09 µM (inactive); in the assay on SF-268 it was 3.32 µM (inactive); in the assay with SF-295 it was 5.25 µM (inactive). Besides, the GI50 in the assay with ACHN was 6.9 µM (inactive); in the assay on NCI-H226, 14.5 µM (inactive); in the assay on SK-MEL-5 it was 7.67 µM (inactive); with RPMI-8226 it was 1.98 µM (inactive); in the assay on SNB-19, 15.5 µM (inactive); with SK-MEL-2, 11.2 µM (inactive). In addition, the GI50 is 4.43 µM (inactive) with U-251; 5.3 µM (inactive) in the assay with OVCAR-3; 1.47 µM (inactive) with HCT-116; 2.05 µM (inactive) with UACC-62; 1.5 µM (inactive) with CCRF-CEM.

Turning to `O=C1/C(=C/c2ccccc2)CN(C(=O)Oc2ccc(Cl)cc2)C/C1=C\c1ccccc1`, the GI50 was 1.51 µM (inactive) with HCC 2998; 1.17 µM in the assay with HCT-15; 3.05 µM (inactive) in the assay with IGROV-1; 21.8 µM (inactive) with HOP-92; 2.99 µM (inactive) with SF-268; 2.23 µM (inactive) in the assay with SF-295. The GI50 in the assay on 786-0 was 1.96 µM (inactive); with ACHN, 3.03 µM (inactive); with NCI-H226, 5.74 µM (inactive); in the assay on SK-MEL-5, 1.68 µM (inactive); with RPMI-8226, 0.0957 µM (active); with SNB-19, 3.31 µM (inactive). Further, the GI50 was 11.5 µM (inactive) in the assay with SK-MEL-2; 1.53 µM (inactive) with U-251; 3.42 µM (inactive) in the assay with OVCAR-3; 0.239 µM (active) with HCT-116; 2.31 µM (inactive) in the assay on UACC-62; 1.55 µM (inactive) in the assay on CCRF-CEM.

Consider `O=C1c2ccccc2CC1C1(O)C(=O)Nc2c(Cl)cc(Cl)cc21` (stereo not drawn), for which the GI50 with HCC 2998 is > 100 µM (inactive); in the assay on HCT-15, 42.5 µM; in the assay on HOP-92 it was 53.3 µM (inactive); in the assay with SF-268, 61 µM (inactive); in the assay with SF-295, 47.9 µM (inactive); with 786-0, > 100 µM (inactive). The GI50 in the assay on ACHN was 64 µM (inactive); with NCI-H226 it was 44.2 µM (inactive); in the assay on SK-MEL-5, 27.9 µM (inactive); with RPMI-8226, 20.8 µM (inactive); with SNB-19, 37.1 µM (inactive); with SK-MEL-2, 97.5 µM (inactive). Moreover, the GI50 in the assay on U-251 was 54.8 µM (inactive); in the assay with OVCAR-3, 53.5 µM (inactive); in the assay with CCRF-CEM, 26.6 µM (inactive).

With `CCC(COC(=O)CC[C@@H](NC(=O)C(C)NC(=O)C(C)OC1C(O)C(CO)OC(OCc2ccccc2)C1NC(C)=O)C(N)=O)NC1c2ccccc2Nc2cccc([N+](=O)[O-])c21` (stereo partly drawn), the GI50 in the assay on HCC 2998 is > 100 µM (inactive); in the assay on HCT-15 it was over 100 µM; with IGROV-1, > 100 µM (inactive); in the assay on HOP-92 it was > 100 µM (inactive); with SF-268, > 100 µM (inactive); in the assay with SF-295, > 100 µM (inactive). Moreover, the GI50 in the assay on 786-0 was 67.1 µM (inactive); in the assay with ACHN it was > 100 µM (inactive); with NCI-H226, > 100 µM (inactive); in the assay on SK-MEL-5, > 100 µM (inactive); with RPMI-8226 it was > 100 µM (inactive); in the assay with SNB-19 it was > 100 µM (inactive). For the same molecule, the GI50 was > 100 µM (inactive) with SK-MEL-2; > 100 µM (inactive) in the assay on U-251; 80.2 µM (inactive) with OVCAR-3; > 100 µM (inactive) with HCT-116; > 100 µM (inactive) with UACC-62; > 100 µM (inactive) in the assay on CCRF-CEM.
